Test results reported in paper PMC6100633, “Design, Synthesis, and Evaluation of a New Series of Thiazole-Based Anticancer Agents as Potent Akt Inhibitors” (Molecules : A Journal of Synthetic Chemistry and Natural …, 2018).
Converted amounts (≈) assume the structure as drawn.

What was measured:
[1] = tested on: C6 cells; assay: Annexin V FITC/PI flow cytometric analysis of apoptosis, C6 cells; type: cell-based, rat; details: for Early Apoptotic Cells% / Late Apoptotic Cells% / Viable Cells%: C6 cells, 24 h, compounds at IC50 values; for early and late apoptotic cell population: C6 cell line, sum of early and late apoptotic cells
Protocol: (§1) Annexin V staining protocol was applied according to the manufacturer’s instructions (BD Pharmingen, San Jose, CA, USA). The cells were then briefly washed with cold phosphate buffer saline (PBS) and suspended in a binding buffer at a concentration of 1 × 10^6 cells/mL. Then, 100 µL of this solution containing 1 × 10^5 cells was transferred to a 5 mL test tube. After 5 µL of Annexin V and PI was added, the cells were incubated for 15 min at room temperature in the dark. Then 400 µL of 1× binding buffer was added to each tube and the cells were processed for data acquisition, and analyzed on a BD FACSAria flow cytometer using FACSDiva version 6.1.1 software (BD Biosciences, San Jose, CA, USA).

[2] = tested on: Akt; assay: In cell ELISA colorimetric Akt activity, A549 cells; type: cell-based, human; details: compounds at IC50 concentrations for 24 h
Protocol: (§2) Briefly, the media was removed and 100 µL of 4% formaldehyde was added to each well. The plate was incubated in a fume hood at room temperature for 15 min. Formaldehyde was removed and the plate was washed twice with 100 µL/well of 1× TBS. Then, 1× TBS was removed, 100 µL/well of 1× permeabilization buffer was added and incubated for 15 min at room temperature. The permeabilization buffer was removed and the plate was washed once with 100 µL/well of 1× TBS. Then, 1× TBS was removed, 100 µL/well quenching solution was added and incubated at room temperature for 20 min. Quenching solution was removed and the plate was washed once with 100 µL/well of 1× TBS. Then, 1× TBS was removed and 100 µL/well of blocking buffer was added and incubated at room temperature for 30 min. After the blocking buffer was removed, 50 µL/well of primary antibody was added. A plate sealer was applied and incubated overnight at 4 °C. The primary antibody solution was removed and the plate was washed three times with 100 µL/well of 1× wash Buffer. After the wash buffer was removed, 100 µL/well of diluted HRP conjugate was added and incubated for 30 min at room temperature. The wash buffer was removed and 100 µL/well of TMB substrate was added. The plate was then incubated at room temperature, protected from light. 100 µL/well of TMB stop solution was added and the absorbance was measured at 450 nm within 30 min of stopping the reaction. The experiment was performed in triplicate wells. The values of blank wells were subtracted from each well of treated and control cells. Percent Akt activity was defined as the relative absorbance of treated versus untreated control cells.

[3] = tested on: A549 human lung adenocarcinoma cell line; assay: MTT assay, A549 cells; type: cell-based; details: for IC50: Homo sapiens, A549, 24 h
Protocol: (§3) C6 Rat glioma and NIH/3T3 mouse embryonic fibroblast cells were incubated in Dulbecco’s Modified Eagle’s Medium (DMEM) (Sigma, Deisenhofen, Germany) supplemented with 10% fetal calf serum (Gibco, Paisley, UK). A549 Human lung adenocarcinoma cells were incubated in 90% RPMI supplemented with 10% fetal bovine serum (Gibco, Paisley, UK). All media were supplemented with 100 IU/mL penicillin-streptomycin (Gibco, Paisley, UK) and the cells were incubated at 37 °C in a humidified atmosphere of 95% air and 5% CO2. Exponentially growing cells were plated at 2 × 10^4 cells/mL into 96-well microtiter tissue culture plates (Nunc, Roskilde, Denmark) and incubated for 24 h before the addition of the drugs (the optimum cell number for cytotoxicity assays was determined in preliminary experiments). The stock solutions of the compounds were prepared in dimethyl sulfoxide (DMSO; Sigma Aldrich, Poole, UK) and further dilutions were made with fresh culture medium (the concentration of DMSO in the final culture medium was <0.1% which had no effect on the cell viability).
(§4) The level of cellular 3-(4,5-dimethylthiazol-2-yl)-2,5-diphenyltetrazolium bromide (MTT) (Sigma-Aldrich, St. Louis, MO, USA) reduction was quantified as previously described in the literature with small modifications. […] At the end of this period, MTT was added to a final concentration of 0.5 mg/mL and the cells were incubated for 4 h at 37 °C. After the medium was removed, the formazan crystals formed by MTT metabolism were solubilized by addition of 200 µL DMSO to each well and absorbance was read at 540 nm with a microtiter plate spectrophotometer (BioTek Plate Reader, Winooski, VT, USA). Every concentration was repeated in three wells.

[4] = tested on: Akt; assay: In cell ELISA colorimetric Akt activity, C6 cells; type: cell-based, rat; details: compounds at IC50 concentrations for 24 h
Protocol: as §2

[5] = tested on: C6 rat glioma cell line; assay: MTT assay, C6 cells; type: cell-based; details: for IC50: Rattus norvegicus, C6, 24 h
Protocol: as §3, §4

[6] = tested on: NIH/3T3 mouse embryonic fibroblast cell line; assay: MTT assay, NIH/3T3 cells (healthy); type: cell-based; details: NIH3T3, 24 h
Protocol: as §3, with “viability). The level of cellular 3-(4,5-dimethylthiazol-2-yl)-2,5-diphenyltetrazolium bromide (MTT) (Sigma-Aldrich, St. Louis, MO, USA) reduction was quantified as previously described in the literature with small modifications. […] At the end of this period, MTT was added to a final concentration of 0.5 mg/mL and the cells were incubated for 4 h at 37 °C. After the medium was removed, the formazan crystals formed by MTT metabolism were solubilized by addition of 200 µL DMSO to each well and absorbance was read at 540 nm with a microtiter plate spectrophotometer (BioTek Plate Reader, Winooski, VT, USA). Every concentration was repeated in three wells.” for “viability).”

[7] = tested on: A549 cells; assay: Annexin V FITC/PI flow cytometric analysis of apoptosis, A549 cells; type: cell-based, human; details: 24 h, compounds at IC50 values
Protocol: as §1

Row | Compound | melting point [°C] | IC50 [3] [mg/L] | IC50 [5] [mg/L] | Early Apoptotic Cells% [1] [%] | Late Apoptotic Cells% [1] [%] | Viable Cells% [1] [%] | Akt Inhibition % A549 Cell Line [2] [%] | Akt Inhibition % C6 Cell Line [4] [%] | IC50 [6] [mg/L] | Early Apoptotic Cells% [7] [%] | Late Apoptotic Cells% [7] [%] | Viable Cells% [7] [%] | early and late apoptotic cell population [1] [%] | IC50 A549 Cell Line ([3]; 24 h) [mg/L] | IC50 C6 Cell Line ([5]; 24 h) [mg/L]
1 | N#Cc1ccc(Oc2ccc(C=NNC(N)=S)cc2)cc1 [Compound A, 4-(4-Cyanophenoxy)benzaldehyde thiosemicarbazone] | 235 to 236 | 92.5 ± 3.54 (≈ 312 µM) | 26.3 ± 1.53 (≈ 88.8 µM) | 3.2 | 13.1 | 70.2 | 68.08 ± 2.48 | 25.23 ± 8.62 | 225 ± 18 (≈ 759 µM) | 7.6 | 45.9 | 24.2 | – | – | –
2 | N#Cc1ccc(Oc2ccc(C=NNc3nc(-c4ccc(O)cc4)cs3)cc2)cc1 [Compound 8, 2-[2-((4-(4-Cyanophenoxy)phenyl)methylene)hydrazinyl]-4-(4-hydroxyphenyl)thiazole] | 249 to 250 | 107 ± 5.77 (≈ 259 µM) | 5.83 ± 0.76 (≈ 14.1 µM) | 1.9 | 23.8 | 49.7 | 57.37 ± 17.30 | 24.99 ± 0.52 | 227 ± 11.6 (≈ 550 µM) | 2.1 | 38.7 | 18.5 | – | – | –
3 | N.N.[Cl][Pt][Cl] [Cisplatin, cisplatin, reference compound] | – | – | – | 3.3 | 25.5 | – | 31.01 ± 3.18 | 77.25 ± 5.75 | – | 2.6 | 63.5 | – | 28.8 | 17.33 ± 2.08 | 12.67 ± 3.06

The next lines start with results.

Row | melting point [°C] | IC50 [3] [mg/L] | IC50 [5] [mg/L] | Compound | Early Apoptotic Cells% [1] [%] | Late Apoptotic Cells% [1] [%] | Viable Cells% [1] [%] | Akt Inhibition % A549 Cell Line [2] [%] | Akt Inhibition % C6 Cell Line [4] [%] | IC50 [6] [mg/L] | Early Apoptotic Cells% [7] [%] | Late Apoptotic Cells% [7] [%] | Viable Cells% [7] [%] | early and late apoptotic cell population [1] [%] | IC50 A549 Cell Line ([3]; 24 h) [mg/L] | IC50 C6 Cell Line ([5]; 24 h) [mg/L]
4 | 232 to 233 | 12 ± 1.73 (≈ 28.5 µM) | 3.83 ± 0.76 (≈ 9.09 µM) | N#Cc1ccc(Oc2ccc(C=NNc3nc(-c4ccc(C#N)cc4)cs3)cc2)cc1 [Compound 6, 2-[2-((4-(4-Cyanophenoxy)phenyl)methylene)hydrazinyl]-4-(4-cyanophenyl)thiazole] | 4.6 | 28.2 | 42.2 | 45.77 ± 10.58 | 71.66 ± 4.09 | > 500 | 2.3 | 36.5 | 14.4 | 32.8 | – | –
5 | 228 to 229 | 270 ± 95.4 (≈ 658 µM) | 16 ± 5.66 (≈ 39 µM) | Cc1ccc(-c2csc(NN=Cc3ccc(Oc4ccc(C#N)cc4)cc3)n2)cc1 [Compound 7, 2-[2-((4-(4-Cyanophenoxy)phenyl)methylene)hydrazinyl]-4-(4-methylphenyl)thiazole] | 3.2 | 14.3 | 69.2 | – | 70.42 ± 10.37 | 185 ± 5 (≈ 451 µM) | – | – | – | – | – | –
